# According to patent publication US20260284051A1, “METHIONINE ADENOSYLTRANSFERASE 2A (MAT2A) INHIBITOR COMBINATIONS AND USES THEREOF” (INSILICO MEDICINE IP LIMITED, priority 2023, published 2026):
# Experiments:
# Assay type in all cases: in vivo
# Details in all cases: for Tumor volume (mm^3) Final (mean): Mean ± SD
# [1] = test system: NCI-H838 MTAP null xenografts; assay: Efficacy study of NCI-H838 human lung cancer xenograft model in NOD SCID mice
# Text: Efficacy Study of NCI-H838 Human Lung Cancer Xenograft Model in NOD SCID Mice Methods:
# The NCI-H838 cancer cells were maintained in vitro with RPMI-1640 medium supplemented with 10% fetal bovine serum at 37TC in an atmosphere of 5% CO2 in the air. The cells in exponential growth phase were harvested and quantitated by cell counter before tumor inoculation.
# NOD SCID mice, female, 6-8 weeks, weighing approximately 20-22 g, All the mice were purchased from Shanghai Lingchang Bio-Tech Co., Ltd.
# Each mouse was inoculated subcutaneously at the right flank with NCI-H838 cells in a 0.1 mL of PBS mixed with Matrigel (1:1) for tumor development (5×10^6 cells/mouse). Dosing was started when the average tumor size reached approximately ~150 mm^3 for the tumor efficacy study with tool and med chem molecules to look for efficacy vs vehicle tumor growth.
# Mean tumor volume at dosing start was approximately 146.51 mm^3, with six mice randomized to each treatment group. In the NCI-H838 MTAP null tumor model, mice were dosed orally, once per day (QD) with vehicle, once per day (QD) with Compound 1 at 3, 10 mg/kg, mice were intravenous, once per day (QD) with PRMT5 inhibitor MRTX1719 at 50 mg/kg, or Compound 1 combined with MRTX1719 at each dose level.
# [2] = test system: HCC15 MTAP null xenografts; assay: Efficacy study of HCC15 human lung cancer xenograft model in NOD SCID mice
# Experimental: Efficacy Study of HCC15 Human Lung Cancer Xenograft Model in NOD SCID Mice Methods:
# The HCC15 cells were maintained in vitro as a monolayer culture in 90% 1640+10% FBS, 100U/ml penicillin and 100 μg/ml streptomycin at 37° C. in an atmosphere of 5% CO2 in air. The tumor cells were routinely subcultured at a ratio of 1:2 to 1:3 every 3-4 days. Alternatively, Cultures were maintained by addition or replacement of fresh medium. Started cultures at 5×10^5 cells/mL and maintained between 0.5×10^5 and 2×10^6 cells/ml.
# NOD SCID mice, female, 6-8 weeks, weighing approximately 20-22 g.
# Each mouse were inoculated subcutaneously at the right flank with HCC15 cells in a 0.2 mL mixture of 1640 for tumor development (5×10^6 cells/mouse). Dosing was started when the average tumor size reaches approximately 100-200 mm^3 for the tumor efficacy study with tool and med chem molecules to look for efficacy vs vehicle tumor growth.
# Mean tumor volume at dosing start was approximately 133.09 mm^3, with ten mice randomized to each treatment group. In the HCC15 MTAP null tumor model, mice were dosed orally, once per day (QD) with Vehicle, once per day (QD) with Compound 1 at 3 mg/kg, once per day (QD) with AG270 at 100 mg/kg, mice were intravenous, per week with Docetaxel at 2.5 mg/kg, or Compound 1 combined with Docetaxel at each dose level.
# KP4 MTAP null xenografts = assay: Efficacy study of KP-4 human pancreatic cancer xenograft model in NOD SCID mice
# Experimental: Efficacy Study of KP-4 Human Pancreatic Cancer Xenograft Model in NOD SCID Mice
# The KP-4 tumor cell line was maintained in vitro as monolayer culture in RPMI 1640 medium supplemented with 10% fetal bovine serum at 37° C. in an atmosphere of […] in air. The tumor cells were routinely subculture weekly by trypsin-EDTA treatment, not to exceed 4-5 passages. The cells growing in an exponential growth phase was harvested and counted for tumor inoculation.
# Each mouse was inoculated subcutaneously on the central right flank with KP-4 tumor cells (1×10^7) in 0.1 mL of RPMI-1640 without serum for the tumor development. The treatment started when the mean tumor size reached approximately 100 mm^3. Mice were assigned to groups such that the mean tumor volume is the same for each treatment group and time point.
# For routine monitoring, all study animals were monitored for not only tumor growth but also behavior such as mobility, food, and water consumption (by cage side checking only), body weight (BW), eye/hair matting and any other abnormal effect. Any mortality and/or abnormal clinical signs were recorded.
# Body weights of all animals were measured twice a week throughout the study. Body weight change, expressed in %, will be calculated using the following formula: BW change (%)=(BWDay x/BWDay 0)×100, where BWDay x is BW on a given day, and BWDay 0 is BW on Day 0 (initiation of treatment).
# The measurement of tumor size were conducted twice a week with a caliper and the tumor volume (mm^3) was estimated using the formula: TV=a×b^2/2, where a and b are long and short diameters of a tumor, respectively. The TVs were used for calculation of the tumor growth inhibition (TGI, an indicator of antitumor effectiveness) value using the formula: TGI (%)=[1−(Tn−T0)/(Cn−C0)]×100%, only over the dosing period (dosing days 0 to days n). Where: Tn—is the avg tumor volume at the respective day “n” after dosing throughout treatment period; T0—is the avg tumor volume in the treatment group at day 0 before treatment (immediately before); Cn—avg tumor volume in the control group at the respective day “n” after dosing throughout treatment period; and C0—average tumor volume in the control group at day 0 before treatment (immediately before). The experiment was terminated when the mean tumor volume exceeded 2000 mm^3 or severe body weight loss.
# The statistical software GraphPad Prism (version number: 8) was used to analyze the difference in tumor volume between the treatment group and the solvent control group. Two-way ANOVA and Bonferroni multiple tests were used to compare whether there was a significant difference in tumor volume between the vehicle control group and each treatment group during the administration period.
# Mean tumor volume at dosing start was approximately 102 mm^3, with ten mice randomized to each treatment group. In the KP4 MTAP null tumor model, mice were dosed orally, once per day (QD) with Vehicle, once per day (QD) with Compound 1 at 1, 3 mg/kg, once per day (QD) with AG270 at 100 mg/kg, mice were intravenous, per week with Docetaxel at 2.5 mg/kg, or Compound 1 combined with Docetaxel at each dose level.
# [3] = combination: Compound 1 3 mg/kg QD + MRTX1719 50 mg/kg QD
# [4] = combination: Compound 1 10 mg/kg QD + MRTX1719 50 mg/kg QD
# [5] = combination: Compound 1 3 mg/kg QD + Docetaxel 2.5 mg/kg per week
# [6] = combination: Compound 1 3 mg/kg QD + Docetaxel 2.5 mg/kg per week, listed as Compound 1
smiles,measurement,setting,value
"C#CCNc1nc(=O)n(-c2cccnc2C)c2cc(C(F)(F)F)cc(OC)c12 [Example 36, 5-methoxy-1-(2-methylpyridin-3-yl)-4-(prop-2-yn-1-ylamino)-7-(trifluoromethyl)quinazolin-2(1H)-one]",TGI (%),[1]; Compound 1 3 mg/kg orally QD,1.6%
same,Tumor volume (mm^3) Final (mean),[1]; Compound 1 3 mg/kg orally QD,2029 ± 239 mm^3
same,TGI (%),[1]; Compound 1 10 mg/kg orally QD,19.9%
same,Tumor volume (mm^3) Final (mean),[1]; Compound 1 10 mg/kg orally QD,1678 ± 113 mm^3
same,effect on tumor growth (in words),"[1]; combination of Compound 1 (3, 10 mg/kg) and MRTX1719 50 mg/kg",significantly inhibited tumor growth
same,synergy effect,[1]; combination: Compound 1 3 mg/kg + MRTX1719 50 mg/kg,1.02
same,TGI (%),[1]; [3],83.2%
same,Tumor volume (mm^3) Final (mean),[1]; [3],468 ± 115 mm^3
same,synergy effect,[1]; combination: Compound 1 10 mg/kg + MRTX1719 50 mg/kg,1.21
same,TGI (%),[1]; [4],103.1%
same,Tumor volume (mm^3) Final (mean),[1]; [4],88 ± 7 mm^3
same,Tumor volume (mm^3) Final (mean),[2]; Compound 1 3 mg/kg orally QD,596 ± 63 mm^3
same,TGI (%),"[2]; Compound 1 3 mg/kg orally QD, listed as Compound 1, 3 mg/kg",49.6%
same,effect on tumor growth (in words),[2]; combination of Compound 1 3 mg/kg and Docetaxel 2.5 mg/kg,significantly inhibited tumor growth
same,Tumor volume (mm^3) Final (mean),[2]; [5],399 ± 42 mm^3
same,TGI (%),[2]; [6],71.2%
same,TGI (%),KP4 MTAP null xenografts; Compound 1 1 mg/kg orally QD,36.8%
same,Tumor volume (mm^3) Final (mean),KP4 MTAP null xenografts; Compound 1 1 mg/kg orally QD,"1,484 ± 263 mm^3"
same,TGI (%),KP4 MTAP null xenografts; Compound 1 3 mg/kg orally QD,53.4%
same,Tumor volume (mm^3) Final (mean),KP4 MTAP null xenografts; Compound 1 3 mg/kg orally QD,"1,121 ± 181 mm^3"
same,effect on tumor growth (in words),"KP4 MTAP null xenografts; combination of Compound 1 (1, 3 mg/kg) and Docetaxel 2.5 mg/kg",significantly inhibited tumor growth in a dose dependent manner
same,Tumor volume (mm^3) Final (mean),KP4 MTAP null xenografts; combination: Compound 1 1 mg/kg QD + Docetaxel 2.5 mg/kg per week,767 ± 101 mm^3
same,TGI (%),"KP4 MTAP null xenografts; combination: Compound 1 1 mg/kg QD + Docetaxel 2.5 mg/kg per week, listed as Compound 1",69.6%
same,Tumor volume (mm^3) Final (mean),KP4 MTAP null xenografts; [5],686 ± 80 mm^3
same,TGI (%),KP4 MTAP null xenografts; [6],73.2%
